In patent US9469645B2, “Compounds and compositions for the treatment of parasitic diseases” (Novartis AG, priority 2009, dated 2016) one finds EC50 data, which are given here for 49 compounds.

One test concerns 3D7 P. falciparum strain. In words: parasite proliferation assay in infected red blood cells (SYBR Green I). It is filed as cell-based, Plasmodium falciparum. To be noted: Plasmodium falciparum, 3D7, Erythrocyte, 3D7 strain; read-out: EC50 3D7 strain. The gist of the method:
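P. falciparum 3D7 grown in O+ human erythrocytes to 3–8% parasitemia and exposed to compounds. Proliferation read as the increase in parasite DNA. Detection used SYBR Green I in saponin/triton-X/EDTA lysis buffer, with overnight lysis at room temperature.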

Another test concerns W2 strain. In words: parasite proliferation assay in infected red blood cells (SYBR Green I), W2 strain. It is filed as cell-based. To be noted: Erythrocyte. The source says: Compounds of the invention can be assayed to measure their capacity to inhibit proliferation of parasitemia in infected red blood cells. The proliferation is quantified by the addition of SYBR Green I (INVITROGEN)® dye which has a high affinity for double stranded DNA.

`N[C@H](Cc1ccccc1)C(=O)N1CCn2c(nc(-c3ccc(F)cc3)c2Nc2ccc(F)cc2)C1` [Compound 20]: the EC50 (as a rule, the midpoint of the concentration-response curve) in the test on 3D7 P. falciparum strain was determined as 110 nM; in the test on W2 strain it was 121 nM.
Regarding `Cc1ccc(Nc2c(-c3ccc(F)cc3)nc3n2CCN(C(=O)C(C)(CO)CO)C3)cc1` [Compound 245], the values for the EC50 in the test on 3D7 P. falciparum strain and with W2 strain were 2530 nM and 1800 nM, respectively.
Take `Cc1ccc(-c2c(-c3ccc(Cl)cc3)nc3cnccn23)cc1` [Compound 24]: the EC50 in the test on 3D7 P. falciparum strain was 8920 nM; with W2 strain, 2860 nM.
As for `CC(=O)NCC(=O)N1CCn2c(nc(-c3ccc(F)cc3)c2Nc2ccc(F)cc2)C1` [Compound 25], the values for the EC50 in the test with 3D7 P. falciparum strain and in the test on W2 strain were above 10600 nM and 4350 nM, respectively.
On to `Cc1ccc(Nc2c(-c3cccc(F)c3)nc3n2C(C)(C)CN(C(=O)[C@@H](O)Cc2ccccc2)C3)cc1` [Compound 599], for which the concentration for a half-maximal effect (EC50) with 3D7 P. falciparum strain stood at 120 nM; with W2 strain (Plasmodium falciparum), 134 nM.
Consider `CC1(C)c2nc(-c3ccc(F)cc3)c(NC3CCC(F)(F)CC3)n2CCN1C(=O)CN` [Compound 660], for which the 50% effective concentration (EC50) amounted to 3 nM in the test on 3D7 P. falciparum strain and 6 nM in the test on W2 strain (Plasmodium falciparum).
As to `Cc1ccc(Nc2c(-c3ccc(F)cc3)nc3n2CCN(C(=O)[C@H](Cc2cccc(N)c2)NC(=O)OC(C)(C)C)C3)cc1` [Compound 246], the values for the EC50 in the test with 3D7 P. falciparum strain and in the test with W2 strain were 3880 nM and 1790 nM, respectively.
Take `CCCCC(=O)Nc1ccc(C[C@H](NC(=O)OC(C)(C)C)C(=O)N2CCn3c(nc(-c4cccc(F)c4)c3Nc3ccc(F)cc3)C2)cc1` [Compound 254]: the EC50 with 3D7 P. falciparum strain stood at 3440 nM; in the test on W2 strain, 727 nM.
In the case of `CC(C)(C)OC(=O)N[C@@H](CC(=O)OCc1ccccc1)C(=O)N1CCn2c(nc(-c3cccc(F)c3)c2Nc2ccc(Cl)c(F)c2)C1` [Compound 236], the EC50 in the test on 3D7 P. falciparum strain was found to be 5250 nM; with W2 strain it was 2060 nM.
As to `Cc1ccc(Nc2c(-c3ccc(F)cc3)nc3n2CCN(C(=O)C[C@@H](N)Cc2cc(F)c(F)cc2F)C3)cc1` [Compound 172], the EC50 came out at 100 nM in the test with 3D7 P. falciparum strain and 88 nM with W2 strain.
On to `N[C@@H](Cc1ccc(F)c(F)c1)C(=O)N1CCn2c(nc(-c3ccc(F)cc3)c2Nc2ccc(Cl)c(F)c2)C1` [Compound 319], for which the EC50 is 40 nM in the test on 3D7 P. falciparum strain and 27 nM in the test with W2 strain.
Regarding `Cc1ccc(Nc2c(-c3ccc(F)cc3)nc3n2CCN(C(=O)[C@H]2CCCO2)C3)cc1` [Compound 199], the EC50 with 3D7 P. falciparum strain was found to be 240 nM; in the test on W2 strain, 157 nM.
Regarding `Cc1cc(Nc2c(-c3ccc(F)cc3)nc3n2C(C)(C)C(=O)NC3)ccc1Cl` [Compound 619], the figures for the concentration giving a half-maximal response (EC50) in the test on 3D7 P. falciparum strain and in the test on W2 strain (Plasmodium falciparum) were 570 nM and 713 nM, respectively.
Take `CC(C)(C)C1CCC(Nc2c(-c3ccc(F)cc3)nc3n2CCN(C(=O)CN)C3(C)C)CC1` (centres unmarked) [Compound 663]: the values for the 50% effective concentration (EC50) in the test on 3D7 P. falciparum strain and in the test with W2 strain (Plasmodium falciparum) were 1060 nM and 1660 nM, respectively.
Take `Cc1ccc(-c2c(-c3ccc(F)cc3)nc3n2CCN(C(=O)CN)C3(C)C)cc1` [Compound 704, 2-amino-1-(2-(4-fluorophenyl)-8,8-dimethyl-3-p-tolyl-5,6-dihydroimidazo-[1,2-a]pyrazin-7(8H)-yl)ethanone]: the EC50 with 3D7 P. falciparum strain worked out at 236 nM; in the test with W2 strain (Plasmodium falciparum) it was 232 nM.
For `Cc1cc(Nc2c(-c3ccc(F)cc3)nc3n2C(C)(C)C(=O)N(C)C3)ccc1Cl` [Compound 616], the EC50 was determined as 5720 nM in the test on 3D7 P. falciparum strain and 4560 nM in the test with W2 strain (Plasmodium falciparum).
On to `Cc1ccc(CC(=O)N2CCn3c(nc(-c4ccc(F)cc4)c3Nc3ccc(C)cc3)C2)cc1` [Compound 232], for which the EC50 with 3D7 P. falciparum strain was found to be 50 nM; in the test on W2 strain, 44 nM.
The matching figures for `NCC(=O)N1CCn2c(nc(-c3ccc(F)cc3)c2Nc2ccc(F)cc2F)C1` [Compound 80]: 60 nM and 63 nM.
For the compound `NCC(=O)N1CCn2c(nc(-c3ccccc3)c2NC2CCCC2)C1` [Compound 7], the figures for the EC50 in the test on 3D7 P. falciparum strain and in the test on W2 strain were 15800 nM and 7780 nM, respectively.
Turning to `Cc1cc(C)cc(Nc2c(-c3ccc(F)cc3)nc3n2CCN(C(=O)CN)C3(C)C)c1` [Compound 656], the EC50 with 3D7 P. falciparum strain worked out at 6 nM; with W2 strain (Plasmodium falciparum), 7 nM.
Consider `N#Cc1ccc(C[C@H](N)C(=O)N2CCn3c(nc(-c4ccc(F)cc4)c3Nc3ccc(Cl)c(F)c3)C2)cc1` [Compound 328], for which the EC50 in the test on 3D7 P. falciparum strain was found to be 340 nM; in the test with W2 strain, 229 nM.
Regarding `COCCCN1C(=O)Cn2c(nc(-c3cccc(F)c3)c2Nc2ccc(F)c(C)c2)C1(C)C` [Compound 691], the 50% effective concentration (EC50) with 3D7 P. falciparum strain worked out at 68 nM; in the test on W2 strain (Plasmodium falciparum) it was 60 nM.
Take `CC1(C)c2nc(-c3ccc(F)cc3)c(N3CCC(N4CCCCC4)CC3)n2CCN1C(=O)CN` [Compound 669]: the EC50 in the test on 3D7 P. falciparum strain is 3980 nM; in the test on W2 strain (Plasmodium falciparum), above 10000 nM.
Take `CN[C@@H](CC(C)C)C(=O)N1CCn2c(nc(-c3ccc(F)cc3)c2Nc2ccc(C)cc2)C1` [Compound 378]: the EC50 in the test on 3D7 P. falciparum strain was determined as 60 nM; in the test on W2 strain, 63 nM.
Turning to `Cc1ccc(Nc2c(-c3ccc(F)cc3)nc3n2CCN(C(=O)[C@@H](O)CC2CCCCC2)C3)cc1` [Compound 145], the EC50 in the test with 3D7 P. falciparum strain came to 90 nM; in the test on W2 strain it was 68 nM.
The matching figures for `Cc1ccc(Nc2c(-c3ccc(F)cc3)nc3n2CCN(C(=O)C(Nc2ccc(C(F)(F)F)cc2Cl)C(C)C)C3)cc1` (centres unmarked) [Compound 355]: 2810 nM and 2270 nM.
The matching figures for `Cc1ccc(Nc2c(-c3ccc(F)cc3)nc3n2CCN(C(=O)[C@@H](N)C(C)(C)C)C3)cc1` [Compound 170]: 90 nM and 54 nM.
With `CCC(=O)Nc1ccc(C[C@H](N)C(=O)N2CCn3c(nc(-c4cccc(F)c4)c3Nc3ccc(F)cc3)C2)cc1` [Compound 261], the results for the concentration for a half-maximal effect (EC50) in the test with 3D7 P. falciparum strain and with W2 strain were 7060 nM and 4130 nM, respectively.
As to `Cc1ccc(Nc2c(-c3ccc(F)cc3)nc3n2CCN(C(=O)C(C)(C)N)C3)cc1Cl` [Compound 632], the EC50 stood at 15 nM with 3D7 P. falciparum strain and 16 nM in the test with W2 strain (Plasmodium falciparum).
Turning to `Cc1ccc(Nc2c(-c3ccc(F)cc3)nc3n2CCN(C(=O)c2cc(=O)[nH]c(=O)[nH]2)C3)cc1` [Compound 165], the EC50 in the test on 3D7 P. falciparum strain was above 10200 nM; in the test on W2 strain, 4640 nM.
Regarding `Cc1ccc(Nc2c(-c3cccc(C)c3)nc3n2CCNC3)cc1` [Example 266, 2-m-tolyl-N-p-tolyl-5,6,7,8-tetrahydroimidazo[1,2-a]pyrazin-3-amine], the EC50 worked out at 1170 nM with 3D7 P. falciparum strain and 1310 nM with W2 strain.
In the case of `CC(C)CNCC(=O)N1CCn2c(nc(-c3ccc(F)cc3)c2Nc2ccc(F)cc2)C1` [Compound 69], the EC50 with 3D7 P. falciparum strain came out at 80 nM; in the test on W2 strain, 94 nM.
For `CN1CCn2c(nc(-c3ccc(F)cc3)c2Nc2ccc(Cl)cc2)C1(C)C` [Compound 607], the EC50 came out at 30 nM in the test with 3D7 P. falciparum strain and 48 nM in the test on W2 strain (Plasmodium falciparum).
In the case of `CNCC(=O)N1CCn2c(nc(-c3ccc(F)cc3)c2Nc2ccc(F)cc2)C1` [Example 32, 1-(2-(4-fluorophenyl)-3-(4-fluorophenylamino)-5,6-dihydroimidazo[1,2-a]pyrazin-7(8H)-yl)-2-(methylamino)ethanone], the EC50 with 3D7 P. falciparum strain is 210 nM; in the test with W2 strain, 219 nM.
As to `Cc1ccc(Nc2c(-c3ccc(F)cc3)nc3n2CCN(C(=O)[C@@H](N)CCS(C)(=O)=O)C3)cc1` [Compound 286], the results for the EC50 with 3D7 P. falciparum strain and in the test on W2 strain were 1380 nM and 1500 nM, respectively.
On the same counts, the results for `Cc1ccc(Nc2c(-c3ccc(F)cc3)nc3n2CCN(C(=O)[C@H](CO)NC(=O)C(F)(F)F)C3)cc1` [Compound 164] are above 9810 nM and 3760 nM.
Consider `Cc1ccc(Nc2c(-c3ccc(F)cc3)nc3ccccn23)cc1` [Compound 751], for which the EC50 was found to be 1790 nM with 3D7 P. falciparum strain and 4550 nM with W2 strain (Plasmodium falciparum).
With `Cc1ccc(Nc2c(-c3ccc(F)cc3)nc3n2CCN(C(=O)C(O)c2ccc(Cl)cc2)C3)cc1` (centres unmarked) [Compound 133], the EC50 in the test with 3D7 P. falciparum strain is 50 nM; with W2 strain, 39 nM.
On the same counts, the results for `Cc1ccc(Nc2c(-c3ccc(F)cc3)nc3n2CCN(C(=O)C(C)(C)c2ccc(Cl)cc2)C3)cc1` [Compound 174] are 6060 nM and 1480 nM.
For `CC(C)(N)C(=O)N1CCn2c(nc(-c3ccc(F)cc3)c2Nc2ccc(Cl)c(F)c2)C1` [Compound 94], the figures for the EC50 in the test with 3D7 P. falciparum strain and in the test with W2 strain were 40 nM and 52 nM, respectively.
For the compound `CC(C)(O)CC(=O)N1CCn2c(nc(-c3ccc(F)cc3)c2Nc2ccc(C#N)cc2)C1` [Compound 265], the EC50 came to 1350 nM with 3D7 P. falciparum strain and 1580 nM with W2 strain.
Regarding `O=C(CN1CCS(=O)(=O)CC1)N1CCn2c(nc(-c3ccc(F)cc3)c2Nc2ccc(F)cc2)C1` [Compound 42], the EC50 turned out to be 6100 nM in the test with 3D7 P. falciparum strain and 4610 nM in the test on W2 strain.
The matching figures for `Cc1ccc(Nc2c(-c3ccc(F)cc3)nc3n2CCN(C(=O)Cc2ccncn2)C3)cc1` [Compound 206]: 1200 nM and 1170 nM.
For `CC(C)(N)C(=O)N1CCn2c(nc(-c3ccc(F)cc3)c2Nc2cc(F)cc(F)c2)C1` [Compound 66], the EC50 worked out at 220 nM with 3D7 P. falciparum strain and 244 nM in the test with W2 strain.
As to `Cc1ccc(Nc2c(-c3ccc(F)cc3)nc3n2CCN(C(=O)[C@H](O)c2ccccc2)C3)cc1` [Compound 137], the EC50 in the test with 3D7 P. falciparum strain was found to be 10 nM; in the test with W2 strain it was 12 nM.
For the compound `CC(C)(C)CC(C)(C)Nc1c(-c2ccccc2Br)nc2ccccn12` [Compound 743], the EC50 worked out at 2680 nM with 3D7 P. falciparum strain and 3000 nM with W2 strain (Plasmodium falciparum).
As for `CC1(C)c2nc(-c3ccc(F)cc3)c([S+]([O-])c3ccc(F)c(F)c3)n2CCN1C(=O)CN` (centres unmarked) [Compound 723], the figures for the EC50 in the test with 3D7 P. falciparum strain and in the test with W2 strain (Plasmodium falciparum) were 89 nM and 68 nM, respectively.
As to `N#Cc1ccc(Nc2c(-c3ccc(F)cc3)nc3n2CCN(C(=O)CN)C3)cc1` [Compound 264], the EC50 in the test with 3D7 P. falciparum strain was determined as 110 nM; in the test with W2 strain it was 154 nM.
For the compound `CC(C)(C)Nc1c(-c2ccc(F)cc2)nc2n1CCNC2` [Compound 297, N-tert-butyl-2-(4-fluorophenyl)-5,6,7,8-tetrahydroimidazo[1,2-a]pyrazin-3-amine], the EC50 in the test on 3D7 P. falciparum strain was 5290 nM; in the test on W2 strain, 8500 nM.
